# ChEMBL document CHEMBL4359904, “Structural tuning of acridones for developing anticancer agents targeting dihydrofolate reductase” (Bioorg Med Chem Lett, 2019)
# Active and inactive are the calls of the source. The rule behind the calls is not given here.
# Legend:
# MDA-MB-231 = experiment: Growth inhibition of human MDA-MB-231/ATCC cells incubated for 48 hrs by sulforhodamine B assay; assay type: functional; conditions: MDA-MB-231, 48 h
# HL-60(TB) = experiment: Growth inhibition of human HL-60(TB) cells incubated for 48 hrs by sulforhodamine B assay; assay type: functional; conditions: HL-60, 48 h
# OVCAR-3 = experiment: Growth inhibition of human OVCAR3 cells incubated for 48 hrs by sulforhodamine B assay; assay type: functional; conditions: OVCAR-3, 48 h
# EKVX = experiment: Growth inhibition of human EKVX cells incubated for 48 hrs by sulforhodamine B assay; assay type: functional
# COLO 205 = experiment: Growth inhibition of human COLO205 cells incubated for 48 hrs by sulforhodamine B assay; assay type: functional; conditions: COLO 205, 48 h
# SR = experiment: Growth inhibition of human SR cells incubated for 48 hrs by sulforhodamine B assay; assay type: functional
# MOLT-4 [1] = experiment: Growth inhibition of human MOLT4 cells incubated for 48 hrs by sulforhodamine B assay; assay type: functional; conditions: MOLT-4, 48 h
# NCI/ADR-RES = experiment: Growth inhibition of human NCI/ADR-RES cells incubated for 48 hrs by sulforhodamine B assay; assay type: functional
# CCRF-CEM = experiment: Growth inhibition of human CCRF-CEM cells at 10^-5 M incubated for 48 hrs by sulforhodamine B assay relative to control; assay type: functional; conditions: read-out: GI
# SK-MEL-2 = experiment: Growth inhibition of human SK-MEL-2 cells incubated for 48 hrs by sulforhodamine B assay; assay type: functional; conditions: SK-MEL-2, 48 h
# MDA-MB-468 = experiment: Growth inhibition of human MDA-MB-468 cells incubated for 48 hrs by sulforhodamine B assay; assay type: functional; conditions: MDA-MB-468, 48 h
# A498 = experiment: Growth inhibition of human A498 cells incubated for 48 hrs by sulforhodamine B assay; assay type: functional; conditions: A498, 48 h
# RPMI-8226 = experiment: Growth inhibition of human RPMI8226 cells at 10^-5 M incubated for 48 hrs by sulforhodamine B assay relative to control; assay type: functional; conditions: RPMI-8226, 48 h, read-out: GI
# M14 = experiment: Growth inhibition of human M14 cells incubated for 48 hrs by sulforhodamine B assay; assay type: functional; conditions: M14, 48 h
# Malme-3M = experiment: Growth inhibition of human MALME-3M cells incubated for 48 hrs by sulforhodamine B assay; assay type: functional
# K562 = experiment: Growth inhibition of human K562 cells at 10^-5 M incubated for 48 hrs by sulforhodamine B assay relative to control; assay type: functional; conditions: K562, 48 h, read-out: GI
# UACC-257 = experiment: Growth inhibition of human UACC257 cells incubated for 48 hrs by sulforhodamine B assay; assay type: functional; conditions: UACC-257, 48 h
# [2] = target: T1, Dihydrofolate reductase (Homo sapiens) (UniProt P00374); experiment: Binding affinity to human dihydrofolate reductase at 5 uM assessed as decrease in absorption band by UV-visible spectroscopic analysis
# T1 sequence (whole entry): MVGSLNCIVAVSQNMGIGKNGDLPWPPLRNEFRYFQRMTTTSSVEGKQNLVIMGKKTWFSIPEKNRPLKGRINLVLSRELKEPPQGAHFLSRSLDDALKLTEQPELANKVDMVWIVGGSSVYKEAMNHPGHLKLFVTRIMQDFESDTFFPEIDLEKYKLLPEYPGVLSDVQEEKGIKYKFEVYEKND
# UO-31 = experiment: Growth inhibition of human UO31 cells at 10^-5 M incubated for 48 hrs by sulforhodamine B assay relative to control; assay type: functional; conditions: UO-31, 48 h, read-out: GI
# NCI-H522 = experiment: Growth inhibition of human NCI-H522 cells incubated for 48 hrs by sulforhodamine B assay; assay type: functional; conditions: NCI-H522, 48 h
# MOLT-4 [3] = experiment: Growth inhibition of human MOLT4 cells at 10^-5 M incubated for 48 hrs by sulforhodamine B assay relative to control; assay type: functional; conditions: MOLT-4, 48 h, read-out: GI
# HCC 2998 = experiment: Growth inhibition of human HCC2998 cells incubated for 48 hrs by sulforhodamine B assay; assay type: functional; conditions: HCC 2998, 48 h
# C6 [4] = experiment: Cell cycle arrest in rat C6 cells assessed as decrease in cell population at G2/M phase measured after 24 hrs by propidium iodide staining based flow cytometry analysis; assay type: functional
# U-251 = experiment: Growth inhibition of human U251 cells incubated for 48 hrs by sulforhodamine B assay; assay type: functional; conditions: U-251, 48 h
# OVCAR-5 = experiment: Growth inhibition of human OVCAR5 cells incubated for 48 hrs by sulforhodamine B assay; assay type: functional; conditions: OVCAR-5, 48 h
# 786-0 = experiment: Growth inhibition of human 786-0 cells incubated for 48 hrs by sulforhodamine B assay; assay type: functional; conditions: 786-0, 48 h
# C6 [5] = experiment: Cell cycle arrest in rat C6 cells assessed as increase in cell population at sub G0 phase measured after 24 hrs by propidium iodide staining based flow cytometry analysis; assay type: functional
# Dihydrofolate reductase = target: T2, Dihydrofolate reductase (Homo sapiens, UniProt P00374); experiment: Inhibition of human dihydrofolate reductase assessed as inhibition constant by UV-Vis spectra based Benesi Hilebrand equation analysis
# T2 sequence (P00374 whole entry): T1 sequence (whole entry)
# SW-620 = experiment: Growth inhibition of human SW620 cells incubated for 48 hrs by sulforhodamine B assay; assay type: functional; conditions: SW-620, 48 h
# SF-295 = experiment: Growth inhibition of human SF295 cells incubated for 48 hrs by sulforhodamine B assay; assay type: functional; conditions: SF-295, 48 h
# [6] = read-out: pLC50 (the source's name) (converted)
# [7] = read-out: LC50 (the source's name)
smiles,measurement,setting,value
O=C(OC[C@@H]1CO1)c1cccc2c(=O)c3ccccc3[nH]c12,GI50,MDA-MB-231,2.09 µM
same,CC50,MDA-MB-231; [6],> 100 µM
same,TGI,MDA-MB-231; read-out: pTGI (converted),5.25 µM
same,GI50,HL-60(TB),1.29 µM
same,CC50,HL-60(TB); [6],8.51 µM
same,TGI,HL-60(TB); read-out: pTGI (converted),3.31 µM
same,GI50,OVCAR-3,2.29 µM
same,CC50,OVCAR-3; [6],51.3 µM
same,TGI,OVCAR-3; read-out: pTGI (converted),7.24 µM
same,GI50,EKVX,2.57 µM
same,CC50,EKVX; [6],> 100 µM
same,TGI,EKVX; read-out: pTGI (converted),6.46 µM
same,GI50,COLO 205,1.48 µM
same,CC50,COLO 205; [6],33.9 µM
same,TGI,COLO 205; read-out: pTGI (converted),4.17 µM
same,GI50,SR; read-out: GI50,0.3 µM
same,CC50,SR; [7],> 100 µM
same,GI50,SR; read-out: pGI50 (converted),0.302 µM
same,CC50,SR; [6],> 100 µM
same,TGI,SR; read-out: pTGI (converted),4.37 µM
same,GI50,MOLT-4 [1]; read-out: GI50,0.28 µM
same,CC50,MOLT-4 [1]; [7],> 100 µM
same,GI50,MOLT-4 [1]; read-out: pGI50 (converted),0.288 µM
same,CC50,MOLT-4 [1]; [6],> 100 µM
same,TGI,MOLT-4 [1]; read-out: pTGI (converted),2.34 µM
same,GI50,NCI/ADR-RES,1.7 µM
same,CC50,NCI/ADR-RES; [6],> 100 µM
same,TGI,NCI/ADR-RES; read-out: pTGI (converted),6.31 µM
same,inhibition of growth at 10 µM,CCRF-CEM,93%
same,GI50,SK-MEL-2,1.95 µM
same,CC50,SK-MEL-2; [6],7.41 µM
same,TGI,SK-MEL-2; read-out: pTGI (converted),3.8 µM
same,GI50,MDA-MB-468,1.82 µM
same,CC50,MDA-MB-468; [6],7.94 µM
same,TGI,MDA-MB-468; read-out: pTGI (converted),3.8 µM
same,GI50,A498,2.63 µM
same,CC50,A498; [6],27.5 µM
same,TGI,A498; read-out: pTGI (converted),6.61 µM
same,inhibition of growth at 10 µM,RPMI-8226,100%
same,GI50,M14,1.66 µM
same,CC50,M14; [6],9.12 µM
same,TGI,M14; read-out: pTGI (converted),3.89 µM
same,GI50,Malme-3M,1.66 µM
same,CC50,Malme-3M; [6],6.17 µM
same,TGI,Malme-3M; read-out: pTGI (converted),3.16 µM
same,inhibition of growth at 10 µM,K562,95%
same,GI50,UACC-257,2.09 µM
same,CC50,UACC-257; [6],9.55 µM
same,TGI,UACC-257; read-out: pTGI (converted),4.47 µM
same,Activity,[2],Active
same,inhibition of growth at 10 µM,UO-31,100%
same,GI50,NCI-H522,1.62 µM
same,CC50,NCI-H522; [6],8.71 µM
same,TGI,NCI-H522; read-out: pTGI (converted),3.72 µM
same,inhibition of growth at 10 µM,MOLT-4 [3],99%
same,GI50,HCC 2998,1.51 µM
same,CC50,HCC 2998; [6],7.76 µM
same,TGI,HCC 2998; read-out: pTGI (converted),3.47 µM
same,inhibition,C6 [4],Active
same,GI50,U-251,1.82 µM
same,CC50,U-251; [6],50.1 µM
same,TGI,U-251; read-out: pTGI (converted),7.24 µM
same,GI50,OVCAR-5,2.45 µM
same,CC50,OVCAR-5; [6],> 100 µM
same,TGI,OVCAR-5; read-out: pTGI (converted),6.46 µM
same,GI50,786-0,2.75 µM
same,CC50,786-0; [6],> 100 µM
same,TGI,786-0; read-out: pTGI (converted),8.13 µM
same,Activity,C6 [5],Active
same,Ki,Dihydrofolate reductase,0.092 µM
same,GI50,SW-620; read-out: GI50,0.83 µM
same,CC50,SW-620; [7],> 100 µM
same,GI50,SW-620; read-out: pGI50 (converted),0.832 µM
same,CC50,SW-620; [6],> 100 µM
same,TGI,SW-620; read-out: pTGI (converted),12.9 µM
same,GI50,SF-295,2.88 µM
same,CC50,SF-295; [6],> 100 µM
same,TGI,SF-295; read-out: pTGI (converted),9.55 µM
